PubChem BioAssay (NCI)
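Method: 48-hour compound exposure of cells in 96-well plates, five concentrations, linear interpolation of endpoints. The concentration for 50% growth inhibition is given as GI50. TGI is the concentration that stops growth completely.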

Key:
Experiment in all cases: NCI-60 cell line screen, 48 h
[1] = test system: M14 melanoma
[2] = test system: TK-10 renal
[3] = test system: MCF7 breast
[4] = test system: SK-MEL-28 melanoma
[5] = test system: A498 renal
[6] = test system: RXF 393 renal
[7] = test system: T-47D breast
[8] = test system: HS 578T breast
[9] = test system: NCI-H460 lung
[10] = test system: SR leukemia

## N#Cc1ncc(-c2ccc(C(F)(F)F)cc2)c(NCc2cc(C(F)(F)F)cc(C(F)(F)F)c2)n1
[1]
  GI50: 5.19 µM
  TGI: > 100 µM
[2]
  GI50: 5.84 µM
  TGI: 56 µM
[3]
  GI50: 2.74 µM
  TGI: > 100 µM
[4]
  GI50: 5.17 µM
  TGI: > 100 µM
[5]
  GI50: 2.08 µM
  TGI: 7.71 µM
[6]
  GI50: 3.37 µM
  TGI: 20.1 µM
[7]
  GI50: 3.35 µM
  TGI: > 100 µM
[8]
  GI50: 3.08 µM
  TGI: 59.8 µM
[9]
  GI50: 3.02 µM
  TGI: 10.2 µM
[10]
  GI50: 2.97 µM
  TGI: 13.8 µM

## CC(C)Nc1ccc(Nc2ccccc2)cc1
[1]
  GI50: 14.9 µM
  TGI: 33 µM
[2]
  GI50: 23.1 µM
  TGI: 57.4 µM
[3]
  GI50: 11.1 µM
  TGI: 31.9 µM
[4]
  GI50: 28.1 µM
  TGI: 95.1 µM
[5]
  GI50: 9.69 µM
  TGI: > 100 µM
[6]
  GI50: 8.81 µM
  TGI: 24.6 µM
[7]
  GI50: 15.5 µM
  TGI: 38.8 µM
[8]
  GI50: 38.3 µM
  TGI: > 100 µM
[9]
  GI50: 18.9 µM
  TGI: > 100 µM
[10]
  GI50: 15.7 µM
  TGI: 49.3 µM

## CCC[CH2][Sn]([CH2]CCC)([O]C(=O)c1cc(F)ccc1F)[O][Sn]([CH2]CCC)([CH2]CCC)[O]C(=O)c1cc(F)ccc1F
[1]
  GI50: 0.367 µM
  TGI: 1.25 µM
[2]
  GI50: 0.226 µM
  TGI: 0.616 µM
[3]
  GI50: 0.0822 µM
  TGI: 0.776 µM
[4]
  GI50: 0.169 µM
  TGI: 0.497 µM
[5]
  GI50: 0.238 µM
  TGI: 0.631 µM
[6]
  GI50: 0.0472 µM
  TGI: 0.191 µM
[7]
  GI50: 0.0222 µM
  TGI: 0.207 µM
[8]
  GI50: 0.237 µM
  TGI: 0.994 µM
[9]
  GI50: 1.03 µM
  TGI: 2.48 µM
[10]
  GI50: 0.14 µM
  TGI: > 22.3 µM

## O=C1c2cccnc2C(=O)C2C3C=CC(C3)C12 (stereo not given)
[1]
  TGI: 28 µM
[2]
  TGI: 31.9 µM
[3]
  TGI: 15.4 µM
[4]
  TGI: 39.3 µM
[5]
  TGI: 44.7 µM
[6]
  TGI: 10.3 µM
[7]
  TGI: 13.2 µM
[8]
  TGI: 85.1 µM
[9]
  TGI: 15.6 µM
[10]
  TGI: 6.65 µM

## Cc1cc2cc3cc(C)c(N(C)C)cc3[n+](C)c2cc1N(C)C
[1]
  GI50: 4.68 µM
  TGI: 19.8 µM
[2]
  GI50: 5.19 µM
  TGI: 58.4 µM
[3]
  GI50: 2.38 µM
  TGI: > 100 µM
[4]
  GI50: 2.64 µM
  TGI: 8.53 µM
[5]
  GI50: 3.18 µM
  TGI: 25.5 µM
[6]
  GI50: 6.09 µM
  TGI: 23.4 µM
[7]
  GI50: 2.94 µM
  TGI: > 100 µM
[8]
  GI50: 2.35 µM
  TGI: 14.9 µM
[9]
  GI50: 2.65 µM
  TGI: 11 µM
[10]
  GI50: 3.16 µM
  TGI: > 100 µM

## Cc1nc(-c2ccccc2)c(Cc2ccccc2O)c(=O)[nH]1
[1]
  TGI: > 100 µM
[2]
  TGI: > 100 µM
[3]
  TGI: > 100 µM
[4]
  TGI: > 100 µM
[5]
  TGI: > 100 µM
[6]
  TGI: > 100 µM
[7]
  TGI: > 100 µM
[8]
  TGI: > 100 µM
[9]
  TGI: > 100 µM
[10]
  TGI: > 100 µM

## CCCc1cc(O)c2c3c(c(=O)oc2c1)CN(C)CC3
[1]
  GI50: 32.5 µM
  TGI: > 100 µM
[2]
  GI50: > 100 µM
  TGI: > 100 µM
[3]
  GI50: 44.8 µM
  TGI: > 100 µM
[4]
  GI50: 21.8 µM
  TGI: 67.4 µM
[5]
  GI50: 15.8 µM
  TGI: 98.5 µM
[6]
  GI50: 23.1 µM
  TGI: > 100 µM
[7]
  GI50: 37.8 µM
  TGI: > 100 µM
[8]
  GI50: 41.3 µM
  TGI: > 100 µM
[9]
  GI50: > 100 µM
  TGI: > 100 µM
[10]
  GI50: 36.1 µM
  TGI: > 100 µM

## CC(=O)Nc1ccc(/C=C/C(=O)c2ccccc2)cc1
[1]
  GI50: 16 µM
  TGI: 33.3 µM
[2]
  GI50: 14.6 µM
  TGI: 29.8 µM
[3]
  GI50: 3.5 µM
  TGI: 13.9 µM
[4]
  GI50: 20.5 µM
  TGI: 44.2 µM
[5]
  GI50: 15.9 µM
  TGI: 36.7 µM
[6]
  GI50: 13.9 µM
  TGI: 27.5 µM
[7]
  GI50: 13.8 µM
  TGI: 42.3 µM
[8]
  GI50: 5.97 µM
  TGI: 43.3 µM
[9]
  GI50: 17.6 µM
  TGI: 41.6 µM
[10]
  GI50: 3.24 µM
  TGI: 22 µM

## CCCCOc1ccc(NC(=O)n2nc(N)c3ccccc32)cc1
[1]
  GI50: 17.7 µM
  TGI: 42.2 µM
[2]
  GI50: 26.9 µM
  TGI: > 73.5 µM
[3]
  GI50: 5.62 µM
  TGI: 32.3 µM
[4]
  GI50: 28.3 µM
  TGI: > 90.5 µM
[5]
  GI50: 20.1 µM
  TGI: 49.4 µM
[6]
  GI50: 25.8 µM
  TGI: 61.2 µM
[7]
  GI50: 17 µM
  TGI: > 88.2 µM
[8]
  GI50: 20.7 µM
  TGI: 53.4 µM
[9]
  GI50: 13 µM
  TGI: 31.2 µM
[10]
  GI50: 16 µM
  TGI: 39.5 µM

## CC(=O)N1N=C(c2ccc(Nc3nc(Nc4ccc(Cl)cc4)nc(Nc4ccc(Cl)cc4)n3)cc2)CC1c1ccc([N+](=O)[O-])cc1 (stereo not given)
[1]
  GI50: 6.8 µM
  TGI: 43.4 µM
[2]
  GI50: 12.2 µM
  TGI: > 75.3 µM
[3]
  GI50: 1.71 µM
  TGI: 10.4 µM
[4]
  GI50: 8.79 µM
  TGI: 74.4 µM
[5]
  GI50: 1.97 µM
  TGI: 19.6 µM
[6]
  GI50: 2.29 µM
  TGI: 9.2 µM
[7]
  GI50: 1.74 µM
  TGI: 7.2 µM
[8]
  GI50: 7.7 µM
  TGI: 97.7 µM
[9]
  GI50: 2.75 µM
  TGI: 12.5 µM
[10]
  GI50: 2.66 µM
  TGI: 20.5 µM

## N#Cc1cccc(OCc2nc(N)nc(N)c2-c2ccc(Cl)c(Cl)c2)c1
[1]
  GI50: 0.639 µM
  TGI: > 100 µM
[2]
  GI50: 9.32 µM
  TGI: > 100 µM
[3]
  GI50: 3.09 µM
  TGI: > 100 µM
[4]
  GI50: 14.5 µM
  TGI: > 100 µM
[5]
  GI50: 2.9 µM
  TGI: > 100 µM
[6]
  GI50: 2.13 µM
  TGI: > 100 µM
[7]
  GI50: 8.25 µM
  TGI: > 100 µM
[8]
  GI50: 4.41 µM
  TGI: > 100 µM
[9]
  GI50: 0.435 µM
  TGI: > 100 µM
[10]
  GI50: 2.39 µM
  TGI: > 100 µM
